In brackets after ≈: the same amount, converted by molar mass. Where two headings read alike, the source gives them in different places.
Legend:
[1] = system: E. coli TK-3; experiment: Antibacterial activity (MIC, agar dilution) against E. coli TK-3*; format: cell-based; conditions: Escherichia coli
Method: (§1) According to Chemotherapy, vol. 29, No. 1, pp. 76-79 (1981), bacterium was cultured in peptone broth manufactured by Eiken Kagaku K.K. at 37° C. for 20 hours to prepare a bacterial solution of 10^8 cells/ml, and one loopful of the bacterial solution was inoculated into Heart Infusion agar medium (manufactured by Eiken Kagaku K.K.) containing a drug, cultured at 37° C. for 20 hours, after which growth of bacterium was observed. The minimum concentration at which the growth of bacterium was prevented was indicated as MIC (μg/ml).
(§2) *means that β-lactamaseproducing bacteria.

[2] = system: S. marcescens W-8; experiment: Antibacterial activity (MIC, agar dilution) against S. marcescens W-8*; format: cell-based; conditions: Serratia marcescens
Method: as §1, §2

[3] = TK3, E. coli TK-3* (β-lactamase-producing bacteria), Heart Infusion agar, 37° C., 20 hours, one loopful of 10^8 cells/ml, read-out: MIC
[4] = W8, S. marcescens W-8* (β-lactamase-producing bacteria), Heart Infusion agar, 37° C., 20 hours, one loopful of 10^8 cells/ml, read-out: MIC

**Q.** Which MIC [1, 3] does the source give for Cn1cc(C=NN2CCN([C@]3(C(=O)O)CN4C(=O)[C@@H](NC(=O)C(C(=O)O)c5ccccc5)[C@H]4S3)C2=O)nn1 (stereo partly drawn) [compound 46] here?
**A.** 12.5 µg/mL (≈ 23 µM)

**Q.** And the MIC [2, 4]?
**A.** 6.25 µg/mL (≈ 11.5 µM)

**Q.** What does the source list for O=C(O)C(C(=O)N[C@@H]1C(=O)N2C[C@@](C(=O)O)(N3CCN(NC(=O)C(F)(F)F)C3=O)S[C@H]12)c1ccc(O)cc1 (stereo partly drawn) [compound 13]?
**A.** MIC [1, 3]: 12.5 µg/mL (≈ 22.3 µM); MIC [2, 4]: 3.13 µg/mL (≈ 5.57 µM)

**Q.** Which results are given for O=C(O)C=NN1CCN([C@]2(C(=O)O)CN3C(=O)[C@@H](NC(=O)C(C(=O)O)c4ccccc4)[C@H]3S2)C1=O (stereo partly drawn) [compound 9]?
**A.** MIC [1, 3]: 25 µg/mL (≈ 49.5 µM); MIC [2, 4]: 12.5 µg/mL (≈ 24.7 µM)

**Q.** How did the MIC ([1]; TK3, 20 h) turn out when CCN1CCN(C(=O)NN2CCN([C@]3(C(=O)O)CN4C(=O)[C@@H](NC(=O)C(C(=O)O)c5ccccc5)[C@H]4S3)C2=O)C(=O)C1=O (stereo partly drawn) [compound 3] was run?
**A.** 0.78 µg/mL (≈ 1.26 µM)

**Q.** And the MIC ([2]; W8, 20 h)?
**A.** 0.78 µg/mL (≈ 1.26 µM)

**Q.** Which MIC [1, 3] does the source give for CC(=O)Oc1ccc(C(C(=O)N[C@@H]2C(=O)N3C[C@@](C(=O)O)(N4CCN(NC(N)=O)C4=O)S[C@H]23)S(=O)(=O)O)cc1OC(C)=O (stereo partly drawn) [compound 28] here?
**A.** 6.25 µg/mL (≈ 9.7 µM)

**Q.** And the MIC ([2]; W8, 20 h)?
**A.** 3.13 µg/mL (≈ 4.86 µM)

**Q.** For NC(=O)NN1CCN([C@]2(C(=O)O)CN3C(=O)[C@@H](NC(=O)[C@@H](c4ccc(O)cc4F)S(=O)(=O)O)[C@H]3S2)C1=O [compound 38], which MIC [1, 3] is on record?
**A.** 1.56 µg/mL (≈ 2.77 µM)

**Q.** What about the MIC ([2]; W8, 20 h) of the same compound?
**A.** 0.78 µg/mL (≈ 1.39 µM)

**Q.** Which MIC [1, 3] does the source give for O=C(O)C(C(=O)N[C@@H]1C(=O)N2C[C@@](C(=O)O)(N3CCN(NS(=O)(=O)O)C3=O)S[C@H]12)c1ccc(O)cc1 (stereo partly drawn) [compound 16] here?
**A.** 12.5 µg/mL (≈ 22.9 µM)

**Q.** What about the MIC [2, 4] of the same compound?
**A.** 12.5 µg/mL (≈ 22.9 µM)

**Q.** How did the MIC ([1]; TK3, 20 h) turn out when NC(=O)C(=O)NN1CCN([C@]2(C(=O)O)CN3C(=O)[C@@H](NC(=O)C(C(=O)O)c4ccccc4)[C@H]3S2)C1=O (stereo partly drawn) [compound 8] was run?
**A.** 3.13 µg/mL (≈ 6.01 µM)

**Q.** And the MIC [2, 4]?
**A.** 1.56 µg/mL (≈ 3 µM)

**Q.** What does the source list for CC(=O)Oc1ccc(C(C(=O)N[C@@H]2C(=O)N3C[C@@](C(=O)O)(N4CCN(NC(N)=O)C4=O)S[C@H]23)S(=O)(=O)O)cc1 (stereo partly drawn) [compound 29]?
**A.** MIC [1, 3]: 6.25 µg/mL (≈ 10.7 µM); MIC [2, 4]: 3.13 µg/mL (≈ 5.34 µM)

**Q.** How did the MIC [1, 3] turn out when NC(=O)C=NN1CCN([C@]2(C(=O)O)CN3C(=O)[C@@H](NC(=O)C(C(=O)O)c4ccccc4)[C@H]3S2)C1=O (stereo partly drawn) [compound 32] was run?
**A.** 1.56 µg/mL (≈ 3.09 µM)

**Q.** What about the MIC [2, 4] of the same compound?
**A.** 0.78 µg/mL (≈ 1.55 µM)

**Q.** Which MIC [1, 3] does the source give for CCN1CCN(C(=O)NN2CCN([C@]3(C(=O)O)CN4C(=O)[C@@H](NC(=O)C(C(=O)O)c5ccc(O)cc5)[C@H]4S3)C2=O)C(=O)C1=O (stereo partly drawn) [compound 14] here?
**A.** 3.13 µg/mL (≈ 4.94 µM)

**Q.** And the MIC [2, 4]?
**A.** 3.13 µg/mL (≈ 4.94 µM)

**Q.** Which results are given for O=C(O)C(C(=O)N[C@@H]1C(=O)N2C[C@@](C(=O)O)(N3CCN(N=Cc4ccco4)C3=O)S[C@H]12)c1ccccc1 (stereo partly drawn) [compound 2]?
**A.** MIC [1, 3]: 0.39 µg/mL (≈ 0.739 µM); MIC [2, 4]: 0.39 µg/mL (≈ 0.739 µM)

**Q.** Which MIC ([1]; TK3, 20 h) does the source give for CON=C(C(=O)N[C@@H]1C(=O)N2C[C@@](C(=O)O)(N3CCN(N=C4SCCS4)C3=O)S[C@H]12)c1csc(N)n1 [compound 47] here?
**A.** 0.78 µg/mL (≈ 1.36 µM)

**Q.** What about the MIC [2, 4] of the same compound?
**A.** 6.25 µg/mL (≈ 10.9 µM)

**Q.** How did the MIC [1, 3] turn out when NC(=O)NN1CCN([C@]2(C(=O)O)CN3C(=O)[C@@H](NC(=O)[C@@H](c4ccc(N)cc4Cl)S(=O)(=O)O)[C@H]3S2)C1=O [compound 35] was run?
**A.** 1.56 µg/mL (≈ 2.7 µM)

**Q.** What about the MIC ([2]; W8, 20 h) of the same compound?
**A.** 0.78 µg/mL (≈ 1.35 µM)

**Q.** NC(=O)NN1CCN([C@]2(C(=O)O)CN3C(=O)[C@@H](NC(=O)C(c4cc(O)c(O)cc4Cl)S(=O)(=O)O)[C@H]3S2)C1=O (stereo partly drawn) [compound 21] was tested. Which MIC [1, 3] did it give?
**A.** 0.39 µg/mL (≈ 0.655 µM)

**Q.** What about the MIC [2, 4] of the same compound?
**A.** 0.39 µg/mL (≈ 0.655 µM)

**Q.** How did the MIC [1, 3] turn out when NC(=O)NN1CCN([C@]2(C(=O)O)CN3C(=O)[C@@H](NC(=O)C(C(=O)O)c4cc(O)c(O)cc4Cl)[C@H]3S2)C1=O (stereo partly drawn) [compound 25] was run?
**A.** 6.25 µg/mL (≈ 11.2 µM)

**Q.** What about the MIC [2, 4] of the same compound?
**A.** 12.5 µg/mL (≈ 22.4 µM)

**Q.** Which MIC [1, 3] does the source give for NC(=O)NN1CCN([C@]2(C(=O)O)CN3C(=O)[C@@H](NC(=O)C(C(=O)O)c4ccc(O)c(O)c4)[C@H]3S2)C1=O (stereo partly drawn) [compound 24] here?
**A.** 25 µg/mL (≈ 47.7 µM)

**Q.** What about the MIC [2, 4] of the same compound?
**A.** 12.5 µg/mL (≈ 23.8 µM)

**Q.** Which results are given for NC(=O)NN1CCN([C@]2(C(=O)O)CN3C(=O)[C@@H](NC(=O)[C@@H](c4cc(O)c(O)cc4Cl)S(=O)(=O)O)[C@H]3S2)C1=O [compound 42]?
**A.** MIC [1, 3]: 0.2 µg/mL (≈ 0.336 µM); MIC ([2]; W8, 20 h): 0.39 µg/mL (≈ 0.655 µM)

**Q.** How did the MIC [1, 3] turn out when O=C(O)C=CC=NN1CCN([C@]2(C(=O)O)CN3C(=O)[C@@H](NC(=O)C(c4cc(O)c(O)cc4Cl)S(=O)(=O)O)[C@H]3S2)C1=O (stereo partly drawn) [compound 48] was run?
**A.** 0.1 µg/mL (≈ 0.158 µM)

**Q.** And the MIC [2, 4]?
**A.** 0.1 µg/mL (≈ 0.158 µM)

**Q.** With O=C(O)C(C(=O)N[C@@H]1C(=O)N2C[C@@](C(=O)O)(N3CCN(N=Cc4ccc(O)c(O)c4)C3=O)S[C@H]12)c1ccccc1 (stereo partly drawn) [compound 4] as the compound, how does the MIC [1, 3] read?
**A.** 6.25 µg/mL (≈ 11 µM)

**Q.** And the MIC [2, 4]?
**A.** 6.25 µg/mL (≈ 11 µM)

**Q.** Which MIC [1, 3] does the source give for O=CNN1CCN([C@]2(C(=O)O)CN3C(=O)[C@@H](NC(=O)C(C(=O)O)c4ccccc4)[C@H]3S2)C1=O (stereo partly drawn) [compound 7] here?
**A.** 12.5 µg/mL (≈ 26.2 µM)

**Q.** And the MIC [2, 4]?
**A.** 6.25 µg/mL (≈ 13.1 µM)

**Q.** What does the source list for O=C(NN1CCN([C@]2(C(=O)O)CN3C(=O)[C@@H](NC(=O)C(C(=O)O)c4ccccc4)[C@H]3S2)C1=O)c1cc(=O)c(O)c[nH]1 (stereo partly drawn) [compound 5]?
**A.** MIC ([1]; TK3, 20 h): 3.13 µg/mL (≈ 5.34 µM); MIC ([2]; W8, 20 h): 3.13 µg/mL (≈ 5.34 µM)

**Q.** For CC(=O)Oc1ccc(C(C(=O)N[C@@H]2C(=O)N3C[C@@](C(=O)O)(N4CCN(N=C5SCCS5)C4=O)S[C@H]23)S(=O)(=O)O)cc1OC(C)=O (stereo partly drawn) [compound 27], which MIC [1, 3] is on record?
**A.** 1.56 µg/mL (≈ 2.22 µM)

From patent US5185330A, “Penam derivatives and salts thereof, and antibacterial agent comprising the same” (Toyama Chemical Co., Ltd., priority 1989, dated 1993)
